Data published in article PMC10447463, “Data-mining unveils structure–property–activity correlation of viral infectivity enhancing self-assembling peptides” (Nature Communications, 2023).
Like-named read-outs stand apart in the source and are kept apart here.

Tests used:
[1] = test system: HIV-1 infection of TZM-bl cells; experiment: HIV-1 infectivity enhancement assay, β-galactosidase luminescence; assay type: cell-based; conditions: for Rel-EFC: infection relative to EF-C (QCKIKQIINMWQ = 1); for Log10 Infection Rel EFC: log10 of infection relative to EF-C; for Log Infectivity: Fig. S7 panel A (plotted against β-sheet content), Log10 infection relative to EF-C, asymmetric std dev errors; for Log10 Infection Rel EF-C: HIV-1 infection of TZM-bl cells; for Log10 of Rel to EFC (Feb2021): Log10 of infection relative to EF-C, all peptides of FigS16; for Abs. Inf.: β-galactosidase luminescence
[2] = assay type: physicochemical; conditions: for ThT Cat. / ThT-Fluorescence (categorical): ThT-active if fluorescence at least twice the control
Method in brief: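 Fibrils (1 mg/mL solution) were mixed with 50 µM ThT in PBS for 15 min at RT, and fluorescence was read at λex 440/λem 488 nm against a PBS blank, as a triplicate mean ± SD. Zeta potential came from electrophoretic mobility (Smoluchowski) after 1 d aggregation at 1 mg/mL in PBS pH 7.4, diluted into 1 mM KCl.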

[3] = Log10 of infection rate relative to EF-C, Figure 3A source data
[4] = infection rate relative to EF-C, log10, data of Figure 2D
[5] = infection rate relative to EF-C, log10, source data of Figure 2C
[6] = ThT fluorescence category, 1 if Rel. ThT >2
[7] = absolute HIV-1 infection signal, TZM-bl cells

Substance | Rel-EFC ([1]; 1.3 µM peptide) | Log10 Infection Rel EFC ([1]; 1.3 µM peptide) | Log Infectivity ([1]; TZM-bl cells) | Log10 Infection Rel EF-C [1, 3] | Log10 Infection Rel EF-C [1, 4] | Log10 Infection Rel EF-C [1, 5] | Tht category (> 2 to blank = +) ([2]; Fig S10 panel D) | Tht category (> 2 to blank = +) ([2]; FigS12 panel A) | ThT Cat, ([2]; FigS12 panel B) | ThT Cat, ([2]; ThT category, 1 if Rel. ThT >2) | ThT Cat. [2, 6] | ThT Cat. / ThT-Fluorescence (categorical) [2] | Log10 of Rel to EFC (Feb2021) [1] | ThT Cat. ([2]; ThT category, 1 if Rel. ThT >2) | Abs. Inf. [1, 7] | other results
KFKFEFEF | 0,03 | -1,55 | -1.547 | -1.55 | -1.547 | -1.547 | 1 (ThT. Cat is 1, if Rel. ThT >2) | 1 (ThT. Cat is 1, if Rel. ThT >2) | 1 (ThT. Cat is 1, if Rel. ThT >2) | 1 (ThT. Cat is 1, if Rel. ThT >2) | 1 (ThT. Cat is 1, if Rel. ThT >2) | 1 (ThT. Cat is 1, if Rel. ThT >2) |  |  |  | 
KFKFQFF | 0,12 | -0,91 | -0.9142 | -0.91 | -0.9142 | -0.9142 | 1 (ThT. Cat is 1, if Rel. ThT >2) |  |  | 1 (ThT. Cat is 1, if Rel. ThT >2) | 1 (ThT. Cat is 1, if Rel. ThT >2) | 1 (ThT. Cat is 1, if Rel. ThT >2) | -0.91 |  |  | Abs. Infection at 0.26 µM ([1]; peptide 0.26 µM, mean of n = 3, Figure 4A): 476.7; Infect 1 0.26 µM ([1]; peptide 0.26 µM, replicate 1, absolute infection signal, Figure 4A): 343.33; Infect 2 0.26 µM ([1]; peptide 0.26 µM, replicate 2, absolute infection signal, Figure 4A): 603.33; Infect 3 0.26 µM ([1]; peptide 0.26 µM, replicate 3, absolute infection signal, Figure 4A): 483.33; Abs. Infection at 1.3 µM ([1]; peptide 1.3 µM, mean of n = 3, Figure 4A): 2850; Infect 1 .3 µM ([1]; peptide 1.3 µM, replicate 1, absolute infection signal, Figure 4A): 3623.33; Infect 2 1.3µM ([1]; peptide 1.3 µM, replicate 2, absolute infection signal, Figure 4A): 2253.33; Infect 3 1.3 µM ([1]; peptide 1.3 µM, replicate 3, absolute infection signal, Figure 4A): 2673.33
KFKFQFN | 0,02 | -1,74 | -1.744 | -1.74 | -1.744 | -1.744 | 0 (ThT-inactive (N-Fold <2)) | 0 (ThT-inactive (N-Fold <2)) | 0 (ThT-inactive (N-Fold <2)) | 0 (ThT-inactive (N-Fold <2)) |  | 0 (ThT-inactive (N-Fold <2)) |  | 0 (ThT-inactive (N-Fold <2)) |  | Inf. rel. EF-C ([1]; HIV-1 infection relative to EF-C, Fig 23 plot, panels A and B, mean of 3 values): 0.01184; Inf. rel. EF-C ([1]; HIV-1 infection relative to EF-C, Fig 23 plot, single data point, replicate 2): 0.01096; Inf. rel. EF-C ([1]; HIV-1 infection relative to EF-C, Fig 23 plot, single data point, replicate 3): 0.005798; Abs. Inf. / RLU s-1 ([1]; absolute infection rate, peptide 1.3 µM on cells, virus preincubated 10 min with fibrils, read 3 days post infection, mean of triplicate): 270 RLU s-1; Abs. Inf. ([1]; absolute infection signal, HIV-1 on TZM-bl cells): 270; Log10 Inf. rel. to EF-C ([1]; log10 of HIV-1 infection of TZM-bl cells relative to EF-C (EF-C = 0)): -1.744; Inf. rel. EF-C ([1]; n-fold infection vs virus only, relative to that of EF-C, 1.3 µM peptide): 0.02; Rel. ThT ([2]; n-fold ThT fluorescence vs control (PBS, 10% DMSO), 4 µL 1 mg/mL fibrils + 20 µL 50 µM ThT, 15 min RT, ex 440 / em 488 nm, triplicate): 1.1
KFKFQFW | 0,16 | -0,79 | -0.7899 | -0.79 | -0.7899 | -0.7899 | 1 (ThT. Cat is 1, if Rel. ThT >2) |  |  | 1 (ThT. Cat is 1, if Rel. ThT >2) |  | 1 (ThT. Cat is 1, if Rel. ThT >2) | -0.79 | 1 (ThT. Cat is 1, if Rel. ThT >2) | 4953 | 
KFKQFFINMWQ | 0,92 | -0,04 | -0.03603 | -0.04 | -0.03603 | -0.03603 | 0 (ThT-inactive (N-Fold <2)) |  |  | 0 (ThT-inactive (N-Fold <2)) |  | 0 (ThT-inactive (N-Fold <2)) | -0.04 | 0 (ThT-inactive (N-Fold <2)) | 14953.33333 | 
KIEIQINM | 0,03 | -1,46 | -1.458 | -1.46 | -1.458 | -1.458 | 0 (ThT-inactive (N-Fold <2)) | 0 (ThT-inactive (N-Fold <2)) | 0 (ThT-inactive (N-Fold <2)) | 0 (ThT-inactive (N-Fold <2)) | 0 (ThT-inactive (N-Fold <2)) | 0 (ThT-inactive (N-Fold <2)) |  |  |  | 
